US20230145835A1, “Modulators of Alpha-4-beta-7 Integrin and MAdCAM” (48HD Biopharma Inc., priority 2021, published 2023)
Like-named read-outs stand apart in the source and are kept apart here. Numbered stars: 1 amine (or outer) side, 2 acyl side, 3 side chain; on linkers, the order of the positions; unused ones are H or OH. Bridge positions count the residues as written; N and C are the ends. Square brackets hold non-standard residues; d marks the D form. Peptide text beside a SMILES is read from it. I, II: the chains in the order shown. CO(CH2CH2O)5CH2CH2CO = O=C(CCOCCOCCOCCOCCOCCC(=O)[*:2])[*:1]; X1 = O=C(C=NOCCCCCCOc1cc(C[*:2])cc(C[*:3])c1)[*:1]; X5 = O=C(CCCCCCOc1cc(C[*:2])cc(C[*:3])c1)[*:1]; tBuAla = CC(C)(C)C[C@H](N)C(=O)O; Met(O) = CS(=O)CC[C@H](N)C(=O)O; Cba = N[C@@H](CC1CCC1)C(=O)O; hSer = N[C@@H](CCO)C(=O)O; Nle = CCCC[C@H](N)C(=O)O

Biological target: T1, rh-integrin α4β7/LPAM-1 (Homo sapiens, UniProt P13612+P26010)
T1 sequence (P13612 34-977 limits assumed): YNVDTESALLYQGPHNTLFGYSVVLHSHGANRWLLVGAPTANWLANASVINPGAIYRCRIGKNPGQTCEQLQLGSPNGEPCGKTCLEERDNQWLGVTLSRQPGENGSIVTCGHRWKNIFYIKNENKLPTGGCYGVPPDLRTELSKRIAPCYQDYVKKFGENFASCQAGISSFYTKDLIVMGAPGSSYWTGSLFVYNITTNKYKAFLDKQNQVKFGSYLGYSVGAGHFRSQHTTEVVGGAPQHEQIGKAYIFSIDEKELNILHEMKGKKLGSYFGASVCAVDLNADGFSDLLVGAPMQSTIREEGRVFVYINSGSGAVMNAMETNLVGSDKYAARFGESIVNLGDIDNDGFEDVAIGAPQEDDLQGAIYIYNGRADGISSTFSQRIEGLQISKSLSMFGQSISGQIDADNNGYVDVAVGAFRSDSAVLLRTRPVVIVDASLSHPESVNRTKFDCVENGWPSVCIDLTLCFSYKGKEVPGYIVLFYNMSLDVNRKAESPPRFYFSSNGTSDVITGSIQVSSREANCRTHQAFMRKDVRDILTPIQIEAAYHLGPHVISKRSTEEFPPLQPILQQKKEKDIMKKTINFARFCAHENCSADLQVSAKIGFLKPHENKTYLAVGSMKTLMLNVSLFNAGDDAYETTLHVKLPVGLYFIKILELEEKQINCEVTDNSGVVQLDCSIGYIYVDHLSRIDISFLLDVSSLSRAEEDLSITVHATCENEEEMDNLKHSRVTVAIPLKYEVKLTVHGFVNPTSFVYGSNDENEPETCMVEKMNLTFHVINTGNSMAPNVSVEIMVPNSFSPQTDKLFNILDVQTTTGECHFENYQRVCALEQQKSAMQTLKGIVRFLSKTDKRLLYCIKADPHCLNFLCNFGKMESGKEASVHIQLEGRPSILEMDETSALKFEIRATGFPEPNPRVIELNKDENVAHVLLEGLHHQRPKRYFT
T1 sequence (P26010 20-723 limits assumed): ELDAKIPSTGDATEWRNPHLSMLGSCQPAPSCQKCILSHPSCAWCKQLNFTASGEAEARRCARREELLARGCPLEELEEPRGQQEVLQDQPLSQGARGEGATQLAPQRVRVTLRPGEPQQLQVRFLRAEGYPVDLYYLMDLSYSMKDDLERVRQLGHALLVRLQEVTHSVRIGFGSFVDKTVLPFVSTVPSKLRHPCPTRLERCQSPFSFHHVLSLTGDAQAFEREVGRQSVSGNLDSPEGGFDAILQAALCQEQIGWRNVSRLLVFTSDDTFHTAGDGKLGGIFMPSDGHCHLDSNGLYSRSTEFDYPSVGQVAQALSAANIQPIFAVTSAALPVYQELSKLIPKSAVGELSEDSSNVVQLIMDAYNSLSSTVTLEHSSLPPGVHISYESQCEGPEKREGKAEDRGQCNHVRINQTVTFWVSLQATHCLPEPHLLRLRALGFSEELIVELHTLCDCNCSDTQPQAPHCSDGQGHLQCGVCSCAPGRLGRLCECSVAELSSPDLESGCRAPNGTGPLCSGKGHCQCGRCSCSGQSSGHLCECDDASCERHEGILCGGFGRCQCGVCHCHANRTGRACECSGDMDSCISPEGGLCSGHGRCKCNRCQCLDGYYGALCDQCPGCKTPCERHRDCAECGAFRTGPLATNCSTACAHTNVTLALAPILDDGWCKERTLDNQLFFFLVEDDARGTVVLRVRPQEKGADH
Experiment: α4β7-MadCAM Competition ELISA (Example 4)
Format: binding
Details: 4 μg/mL α4β7 coated, MAdCAM and peptide mixture, 28° C.
Protocol: After washing with wash buffer, 200 μL assay buffer was added to each well and incubated for one hour at 28° C. After another wash with wash buffer, 100 μL of a MAdCAM and peptide mixture in assay buffer was added to each well and incubated for one hour at 28° C., followed by washing with wash buffer.

[1] = competition ELISA, read-out: IC50

Structure (SMILES) | IC50 [1] | IC50 (IC50, competition ELISA)
CSCC[C@@H]1NC(=O)[C@H]([C@@H](C)O)NC(=O)[C@H](C)NC(=O)CNC(=O)[C@@H]2CSCc3cc(cc(c3)OCCCCCCON=CC(=O)N[C@@H](Cc3ccccc3)C(=O)N2)CSC[C@@H](C(=O)O)NC(=O)[C@H](CCCCN)NC(=O)[C@H](CCCCN)NC1=O [SEQ ID NO: 79] (FCGATMKKC-OH; linker N-2-9 via X1) | 162 µM | 
CC[C@H](C)[C@@H]1NC(=O)[C@H](C)NC(=O)[C@H](CC[S+](C)[O-])NC(=O)[C@@H]2CCCN2C(=O)[C@@H]2CSCc3cc(cc(c3)OCCCCCCON=CC(=O)N[C@@H](CCC(N)=O)C(=O)N2)CSC[C@@H](C(=O)O)NC(=O)[C@H]([C@@H](C)O)NC(=O)[C@@H]2CCCN2C1=O (stereo partly drawn) [SEQ ID NO: 80] (QCP[Met(O)]AIPTC-OH; linker N-2-9 via X1) | 152 µM | 
C[C@@H](O)[C@@H]1NC(=O)[C@H](CC(=O)O)NC(=O)[C@@H]2CCCN2C(=O)[C@H](Cc2ccc(O)cc2)NC(=O)[C@@H]2CSCc3cc(cc(c3)OCCCCCCON=CC(=O)N[C@@H](CC(N)=O)C(=O)N2)CSC[C@@H](C(=O)O)NC(=O)[C@H](Cc2c[nH]cn2)NC(=O)[C@H](Cc2ccc(O)cc2)NC1=O [SEQ ID NO: 86] (NCYPDTYHC-OH; linker N-2-9 via X1) | 79.3 µM | 
COCC[C@@H]1NC(=O)[C@@H]2CCCN2C(=O)[C@@H]2CSCc3cc(cc(c3)OCCCCCCC(=O)NCC(=O)N[C@@H](CCC(N)=O)C(=O)N2)CSC[C@@H](C(=O)O)NC(=O)[C@H](CCC(=O)O)NC(=O)[C@H](CCC(N)=O)NC(=O)[C@@H]2CCCN2C(=O)[C@H](CC(C)(C)C)NC(=O)[C@H](CC(=O)O)NC1=O [SEQ ID NO: 89] (GQCP[hSer](Me)D[tBuAla]PQEC-OH; linker N-3-11 via X5; C-terminus assumed) | 55.9 µM | 
CCCC[C@@H]1NC(=O)[C@H](CO)NC(=O)[C@@H]2CSSC[C@@H](C(=O)N[C@@H](Cc3c[nH]c4ccccc34)C(=O)N[C@@H](CCC(N)=O)C(N)=O)NC(=O)[C@H](C(C)C)NC(=O)[C@H](CC(=O)O)NC(=O)[C@H](CC(C)C)NC(=O)[C@H](CO)NC(=O)[C@H](CCCNC(=N)N)NC(=O)[C@H](CSCC(=O)N[C@@H](CCCNC(=N)N)C(=O)N2)NC(=O)[C@H]([C@@H](C)CC)NC(=O)[C@H](CC(=O)O)NC1=O [SEQ ID NO: 94] ({CH2CO}-RCS[Nle]DICRSLDVCWQ-NH2; disulfide 2-13; thioether N-7) | 19.7 µM | 
C[C@@H](O)[C@@H]1NC(=O)[C@H](CCCCN)NC(=O)[C@H](CO)NC(=O)[C@H](CCC(N)=O)NC(=O)[C@H](Cc2c[nH]c3ccccc23)NC(=O)[C@@H]2CCCN2C(=O)[C@@H]2CSCc3cc(cc(c3)OCCCCCCON=CC(=O)N[C@@H](CC(=O)O)C(=O)N2)CSC[C@@H](C(=O)O)NC1=O [SEQ ID NO: 95] (DCPWQSKTC-OH; linker N-2-9 via X1) |  | 17.7 µM
CCCC[C@@H]1NC(=O)[C@H](CO)NC(=O)[C@H](CCCNC(=N)N)NC(=O)[C@@H]2CSCC(=O)N[C@@H](CCCNC(=N)N)C(=O)N[C@@H](CSSC[C@@H](C(=O)N[C@@H](Cc3c[nH]c4ccccc34)C(=O)N[C@@H](CCC(N)=O)C(N)=O)NC(=O)[C@H]([C@@H](C)CC)NC(=O)[C@H](CC(=O)O)NC1=O)C(=O)N[C@@H](CO)C(=O)N[C@@H](CC(=O)O)C(=O)N[C@@H]([C@@H](C)O)C(=O)N[C@@H](CC(C)C)C(=O)N2 [SEQ ID NO: 96] ({CH2CO}-RCSDTLCRS[Nle]DICWQ-NH2; disulfide 2-13; thioether N-7) | 15.9 µM | 
CC[C@H](C)[C@@H]1NC(=O)C=NOCCCCCCOc2cc3cc(c2)CSC[C@H](NC1=O)C(=O)N[C@@H](CCCNC(=N)N)C(=O)N[C@@H]([C@@H](C)O)C(=O)N[C@@H](CC(=O)O)C(=O)N[C@@H](C(C)C)C(=O)N1CCC[C@H]1C(=O)N[C@@H]([C@@H](C)CC)C(=O)N[C@@H](CC(=O)O)C(=O)N[C@H](C(=O)O)CSC3 [SEQ ID NO: 98] (ICRTDVPIDC-OH; linker N-2-10 via X1) | 14.4 µM | 
CSCC[C@@H]1NC(=O)[C@@H]2CCCN2C(=O)[C@@H]2CSCc3cc(cc(c3)OCCCCCCON=CC(=O)N[C@@H](C)C(=O)N2)CSC[C@@H](C(=O)O)NC(=O)[C@H](CCC(=O)O)NC(=O)CNC(=O)[C@H](C)NC(=O)[C@H](C(C)C)NC(=O)[C@H](CC(=O)O)NC1=O [SEQ ID NO: 101] (ACPMDVAGEC-OH; linker N-2-10 via X1) | 5.98 µM | 
CC(C)(C)C[C@@H]1NC(=O)[C@H](CC(=O)O)NC(=O)[C@H](CC2CCC2)NC(=O)[C@@H]2CCCN2C(=O)[C@@H]2CSCc3cc(cc(c3)OCCCCCCON=CC(=O)N[C@@H](CCCNC(=N)N)C(=O)N2)CSC[C@@H](C(=O)O)NC(=O)[C@H](CCC(=O)O)NC(=O)[C@H](CCC(N)=O)NC(=O)[C@H](Cc2c[nH]c3ccccc23)NC1=O [SEQ ID NO: 105] (RCP[Cba]D[tBuAla]WQEC-OH; linker N-2-10 via X1) | 3.89 µM | 
CC[C@H](C)[C@@H]1NC(=O)[C@H](CC(=O)O)NC(=O)[C@H](CCSC)NC(=O)[C@@H]2CCCN2C(=O)[C@@H](NC(=O)[C@H](CCCNC(=N)N)NC(=O)[C@H](CO)NC(C)=O)CSSC[C@@H](C(=O)N[C@@H](CCCCNC(=O)CCOCCOCCOCCOCCOCCC(=O)NCCCC[C@H](NC(=O)[C@@H]2CSSC[C@H](NC(=O)[C@H](CCCNC(=N)N)NC(=O)[C@H](CO)NC(C)=O)C(=O)N3CCC[C@H]3C(=O)N[C@@H](CCSC)C(=O)N[C@@H](CC(=O)O)C(=O)N[C@@H]([C@@H](C)CC)C(=O)N[C@@H](C)C(=O)NCC(=O)N[C@@H](CCC(=O)O)C(=O)N2)C(N)=O)C(N)=O)NC(=O)[C@H](CCC(=O)O)NC(=O)CNC(=O)[C@H](C)NC1=O [SEQ ID NO: 109] (I: Ac-SRCPMDIAGECK-NH2 / II: Ac-SRCPMDIAGECK-NH2; disulfide I:3-I:11, II:3-II:11; linker I:12-II:12 via CO(CH2CH2O)5CH2CH2CO) | 1.73 µM | 
CC[C@H](C)[C@@H]1NC(=O)[C@H](CC(=O)O)NC(=O)[C@H](CCSC)NC(=O)[C@@H]2CCCN2C(=O)[C@@H](NC(=O)[C@H](CCC(N)=O)NC(=O)[C@H](CO)NC(C)=O)CSSC[C@@H](C(=O)O)NC(=O)[C@H]([C@@H](C)O)NC(=O)[C@@H]2CCCN2C1=O [SEQ ID NO: 111] (Ac-SQCPMDIPTC-OH; disulfide 3-10) | 1.7 µM | 
CC(C)C[C@@H]1NC(=O)[C@@H]2CCCN2C(=O)[C@@H]2CSCc3cc(cc(c3)OCCCCCCON=CC(=O)N[C@@H](CCCCN)C(=O)N2)CSC[C@@H](C(=O)O)NC(=O)[C@H](CCC(=O)O)NC(=O)[C@H]([C@@H](C)O)NC(=O)[C@@H]2CCCN2C(=O)[C@H]([C@@H](C)O)NC(=O)[C@H](CC(=O)O)NC1=O [SEQ ID NO: 121] (KCPLDTPTEC-OH; linker N-2-10 via X1) | 0.748 µM | 
CCCC[C@@H]1NC(=O)[C@@H]2CCCN2C(=O)[C@@H]2CSCc3cc(cc(c3)OCCCCCCC(=O)NCC(=O)N[C@@H](C)C(=O)N2)CSC[C@@H](C(=O)O)NC(=O)[C@H](CCC(=O)O)NC(=O)[C@H](CCC(N)=O)NC(=O)[C@H](Cc2c[nH]c3ccccc23)NC(=O)[C@H](C(C)C)NC(=O)[C@H](CC(=O)O)NC1=O [SEQ ID NO: 122] (GACP[Nle]DVWQEC-OH; linker N-3-11 via X5; C-terminus assumed) | 0.74 µM | 
CC(C)C[C@@H]1NC(=O)[C@@H]2CCCN2C(=O)[C@@H]2CSCc3cc(cc(c3)OCCCCCCON=CC(=O)N[C@@H](CCCCN)C(=O)N2)CSC[C@@H](C(=O)O)NC(=O)[C@H](CCC(=O)O)NC(=O)[C@H](Cc2ccc(O)cc2)NC(=O)[C@@H]2CCCN2C(=O)[C@H](CC(C)C)NC(=O)[C@H](CC(=O)O)NC1=O [SEQ ID NO: 134] (KCPLDLPYEC-OH; linker N-2-10 via X1) | 0.363 µM | 
